Assay results from patent publication US12310975B2, “Modulators of BCL6 proteolysis and associated methods of use” (Arvinas Operations, Inc., priority 2019, dated 2025).
Where two headings read alike, the source gives them in different places.

Biological target: BCL6 (Homo sapiens (Human), UniProt P41182)
Assay: Immunofluorescence high content imaging of BCL6 degradation in T47D cells
Type: cell-based
Conditions: for DC50: class symbols A-D, read-out: EC50 (nM)*
In short: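 Seed T47D in RPMI1640-10% FBS to reach ~70-90% confluence at endpoint; add degrader next day (11-point 3-fold series, top 0.1 or 1 μM final) for 3 days. Then fix, permeabilize, stain BCL6 with nuclear Hoechst, and image.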

IC50	Dmax (T47D)	Dmax (T47D cells)	IC50 (T47D cells)	SMILES	also measured
10 to 50 nM	< 50%			CNC(=O)COc1cc2cc(Nc3cc(N4CCN(C(C)(C)C5CCN(c6ccc7c(c6)C(=O)N(C6CCC(=O)NC6=O)C7=O)CC5)CC4)ncc3Cl)ccc2n(C(C)C)c1=O (centres unmarked) [compound 308, 2-{[6-({5-chloro-2-[4-(2-{1-[2-(2,6-dioxopiperidin-3-yl)-1,3-dioxo-2,3-dihydro-1H-isoindol-5-yl]piperidin-4-yl}propan-2-yl)piperazin-1-yl]pyridin-4-yl}amino)-2-oxo-1-(propan-2-yl)-1,2-dihydroquinolin-3-yl]oxy}-N-methylacetamide]	
		50 to 70%	10 to 50 nM	CNC(=O)COc1cc2cc(Nc3nc(N4C[C@@H](COc5ccc6c(c5)C(=O)N(C5CCC(=O)NC5=O)C6=O)O[C@@H](C)C4)ncc3Cl)ccc2n(C(C)C)c1=O (stereo partly drawn) [compound 383, 2-{[6-({5-chloro-2-[(25,6S)-2-({[2-(2,6-dioxopiperidin-3-yl)-1,3-dioxo-2,3-dihydro-1H-isoindol-5-yl]oxy}methyl)-6-methylmorpholin-4-yl]pyrimidin-4-yl}amino)-2-oxo-1-(propan-2-yl)-1,2-dihydroquinolin-3-yl]oxy}-N-methylacetamide]	
		50 to 70%	< 10 nM	CCCCn1c(=O)c(OCC(=O)NC)cc2cc(Nc3nc(N4CCC[C@H](COc5cccc6c5C(=O)N(C5CCC(=O)NC5=O)C6=O)C4)ncc3Cl)ccc21 (stereo partly drawn) [compound 324, 2-{[1-butyl-6-({5-chloro-2-[(3S)-3-({[2-(2,6-dioxopiperidin-3-yl)-1,3-dioxo-2,3-dihydro-1H-isoindol-4-yl]oxy}methyl)piperidin-1-yl]pyrimidin-4-yl}amino)-2-oxo-1,2-dihydroquinolin-3-yl]oxy}-N-methylacetamide]	
		< 50%	10 to 50 nM	CNC(=O)COc1cc2cc(Nc3nc(N4CCO[C@H](COc5ccc(C(=O)NC6CCC(=O)NC6=O)cc5)C4)ncc3Cl)ccc2n(C(C)C)c1=O (stereo partly drawn) [compound 348, 4-{[(2S)-4-[5-chloro-4-({3-[(methylcarbamoyl)methoxy]-2-oxo-1-(propan-2-yl)-1,2-dihydroquinolin-6-yl}amino)pyrimidin-2-yl]morpholin-2-yl]methoxy}-N-(2,6-dioxopiperidin-3-yl)benzamide]	
		50 to 70%	< 10 nM	CNC(=O)COc1cc2cc(Nc3nc(N4CCC(CN5[C@H](C)CN(c6cccc7c6C(=O)N(C6CCC(=O)NC6=O)C7=O)C[C@@H]5C)CC4)ncc3Cl)ccc2n(C(C)C)c1=O (mixture of isomers) [compound 381, rac-2-[(6-{[5-chloro-2-(4-{[(2R,6S)-4-[2-(2,6-dioxopiperidin-3-yl)-1,3-dioxo-2,3-dihydro-1H-isoindol-4-yl]-2,6-dimethylpiperazin-1-yl]methyl}piperidin-1-yl)pyrimidin-4-yl]amino}-2-oxo-1-(propan-2-yl)-1,2-dihydroquinolin-3-yl)oxy]-N-methylacetamide]	
			≥ 100 nM	CNC(=O)COc1cc2cc(Nc3nc(N4CCC(CN5CCC(c6cc(C(=O)N7CCC7)cc(N7CCC(=O)NC7=O)c6)CC5)CC4)ncc3Cl)ccc2n(C(C)C)c1=O [compound 428, 2-{[6-({2-[4-({4-[3-(azetidine-1-carbonyl)-5-(2,4-dioxo-1,3-diazinan-1-yl)phenyl]piperidin-1-yl}methyl)piperidin-1-yl]-5-chloropyrimidin-4-yl}amino)-2-oxo-1-(propan-2-yl)-1,2-dihydroquinolin-3-yl]oxy}-N-methylacetamide]	
		50 to 70%	< 10 nM	CNC(=O)COc1cc2cc(Nc3nc(N4CCC(F)(CN5CCN(c6cccc7c6C(=O)N(C6CCC(=O)NC6=O)C7=O)CC5)CC4)ncc3Cl)ccc2n(C)c1=O (centres unmarked) [compound 342, 2-{[6-({5-chloro-2-[4-({4-[2-(2,6-dioxopiperidin-3-yl)-1,3-dioxo-2,3-dihydro-1H-isoindol-4-yl]piperazin-1-yl}methyl)-4-fluoropiperidin-1-yl]pyrimidin-4-yl}amino)-1-methyl-2-oxo-1,2-dihydroquinolin-3-yl]oxy}-N-methylacetamide]	
< 10 nM	50 to 70%			CCn1c(=O)c(OCC(=O)NC)cc2cc(Nc3nc(N4CCC(CN5CC6(C5)CN(c5ccc7c(c5)C(=O)N(C5CCC(=O)NC5=O)C7=O)C6)CC4)ncc3Cl)ccc21 (centres unmarked) [compound 298, 2-{[6-({5-chloro-2-[4-({6-[2-(2,6-dioxopiperidin-3-yl)-1,3-dioxo-2,3-dihydro-1H-isoindol-5-yl]-2,6-diazaspiro[3.3]heptan-2-yl}methyl)piperidin-1-yl]pyrimidin-4-yl}amino)-1-ethyl-2-oxo-1,2-dihydroquinolin-3-yl]oxy}-N-methylacetamide]	
		50 to 70%	< 10 nM	CNC(=O)COc1cc2cc(Nc3nc(N4CCC(OC5CC6(CCN(c7ccc8c(c7)C(=O)N(C7CCC(=O)NC7=O)C8=O)CC6)C5)CC4)ncc3Cl)ccc2n(C(C)C)c1=O (centres unmarked) [compound 390, 2-{[6-({5-chloro-2-[4-({7-[2-(2,6-dioxopiperidin-3-yl)-1,3-dioxo-2,3-dihydro-1H-isoindol-5-yl]-7-azaspiro[3.5]nonan-2-yl}oxy)piperidin-1-yl]pyrimidin-4-yl}amino)-2-oxo-1-(propan-2-yl)-1,2-dihydroquinolin-3-yl]oxy}-N-methylacetamide]	

Second part, the molecule before the results:

SMILES	IC50	Dmax (T47D)	Dmax (T47D cells)	IC50 (T47D cells)	also measured
CONC(=O)COc1cc2cc(Nc3cc(N4CCN(C(C)(C)C5CCN(c6ccc7c(c6)C(=O)N(C6CCC(=O)NC6=O)C7=O)CC5)CC4)ncc3Cl)ccc2n(C)c1=O (centres unmarked) [compound 265, 2-((6-((5-chloro-2-(4-(2-(1-(2-(2,6-dioxopiperidin-3-yl)-1,3-dioxoisoindolin-5-yl)piperidin-4-yl)propan-2-yl)piperazin-1-yl)pyridin-4-yl)amino)-1-methyl-2-oxo-1,2-dihydroquinolin-3-yl)oxy)-N-methoxyacetamide]	10 to 50 nM	50 to 70%			
CNC(=O)COc1cc2cc(Nc3nc(N4CCN(CC5CCN(c6ccc(C(=O)NC7CCC(=O)NC7=O)c(OC)c6)CC5)CC4)ncc3Cl)ccc2n(C)c1=O (centres unmarked) [compound 243, 4-(4-((4-(5-chloro-4-((1-methyl-3-(2-(methylamino)-2-oxoethoxy)-2-oxo-1,2-dihydroquinolin-6-yl)amino)pyrimidin-2-yl)piperazin-1-yl)methyl)piperidin-1-yl)-N-(2,6-dioxopiperidin-3-yl)-2-methoxybenzamide]	< 10 nM	≥ 70%			
CC(=O)COc1cc2cc(Nc3nc(N4CCC(N5CCCC5COc5ccc6c(c5)C(=O)N(C5CCC(=O)NC5=O)C6=O)CC4)ncc3Cl)ccc2n(C)c1=O (centres unmarked) [compound 182, 5-((1-(1-(5-chloro-4-((1-methyl-2-oxo-3-(2-oxopropoxy)-1,2-dihydroquinolin-6-yl)amino)pyrimidin-2-yl)piperidin-4-yl)pyrrolidin-2-yl)methoxy)-2-(2,6-dioxopiperidin-3-yl)isoindoline-1,3-dione]	≥ 100 nM	< 50%			
CNC(=O)COc1cc2cc(Nc3nc(N4CCC(OCCOCCOCCOCCOc5ccc6c(c5)CN(C5CCC(=O)NC5=O)C6=O)CC4)ncc3Cl)ccc2n(C)c1=O (centres unmarked) [compound 59, 2-((6-((5-chloro-2-(4-(2-(2-(2-(2-((2-(2,6-dioxopiperidin-3-yl)-1-oxoisoindolin-5-yl)oxy)ethoxy)ethoxy)ethoxy)ethoxy)piperidin-1-yl)pyrimidin-4-yl)amino)-1-methyl-2-oxo-1,2-dihydroquinolin-3-yl)oxy)-N-methylacetamide]					DC50: > 100 nM
CNC(=O)COc1cc2cc(Nc3nc(N4CCC(CCOC5CN(c6cccc7c6C(=O)N(C6CCC(=O)NC6=O)C7=O)C5)CC4)ncc3Cl)ccc2n(C)c1=O (centres unmarked) [compound 252, 2-((6-((5-chloro-2-(4-(2-((1-(2-(2,6-dioxopiperidin-3-yl)-1,3-dioxoisoindolin-4-yl)azetidin-3-yl)oxy)ethyl)piperidin-1-yl)pyrimidin-4-yl)amino)-1-methyl-2-oxo-1,2-dihydroquinolin-3-yl)oxy)-N-methylacetamide]	< 10 nM	50 to 70%			
CNC(=O)COc1cc2cc(Nc3nc(N4CCC(c5cn(CCOCCOCC(=O)N[C@H](C(=O)N6C[C@H](O)C[C@H]6C(=O)N[C@@H](C)c6ccc(-c7scnc7C)cc6)C(C)(C)C)nn5)CC4)ncc3Cl)ccc2n(C)c1=O [compound 115, (2S,4R)-1-((S)-2-(2-(2-(2-(4-(1-(5-chloro-4-((1-methyl-3-(2-(methylamino)-2-oxoethoxy)-2-oxo-1,2-dihydroquinolin-6-yl)amino)pyrimidin-2-yl)piperidin-4-yl)-1H-1,2,3-triazol-1-yl)ethoxy)ethoxy)acetamido)-3,3-dimethylbutanoyl)-4-hydroxy-N-((S)-1-(4-(4-methylthiazol-5-yl)phenyl)ethyl)pyrrolidine-2-carboxamide]					DC50: 10 to 50 nM
CNC(=O)COc1cc2cc(Nc3nc(N4CCC(OCCOCCOCCCOc5ccccc5CCOc5ccc6c(c5)CN(C5CCC(=O)NC5=O)C6=O)CC4)ncc3Cl)ccc2n(C)c1=O (centres unmarked) [compound 111, 2-((6-((5-chloro-2-(4-(2-(2-(3-(2-(2-((2-(2,6-dioxopiperidin-3-yl)-1-oxoisoindolin-5-yl)oxy)ethyl)phenoxy)propoxy)ethoxy)ethoxy)piperidin-1-yl)pyrimidin-4-yl)amino)-1-methyl-2-oxo-1,2-dihydroquinolin-3-yl)oxy)-N-methylacetamide]					DC50: > 100 nM
CNC(=O)COc1cc2cc(Nc3nc(N4CCC(OCc5ccc(OCCOCCOCCOc6ccc7c(c6)CN(C6CCC(=O)NC6=O)C7=O)cc5)CC4)ncc3Cl)ccc2n(C)c1=O (centres unmarked) [compound 118, 2-((6-((5-chloro-2-(4-((4-(2-(2-(2-((2-(2,6-dioxopiperidin-3-yl)-1-oxoisoindolin-5-yl)oxy)ethoxy)ethoxy)ethoxy)benzyl)oxy)piperidin-1-yl)pyrimidin-4-yl)amino)-1-methyl-2-oxo-1,2-dihydroquinolin-3-yl)oxy)-N-methylacetamide]					DC50: 50 to 100 nM
